Calls of active or inactive are those of the source. The rule behind the calls is not given here.
Columns and labels:
[1] = Cytotoxicity against mock-infected human MT4 cells assessed as reduction in cell viability after 96 hrs by MTT assay; assay type: cell-based
[2] = system: Human immunodeficiency virus 1; experiment: Antiviral activity against HIV1 3B infected in human MT4 cells assessed as protection against virus-induced cytopathogenicity after 4 days by MTT assay; assay type: functional, organism-based; conditions: Human immunodeficiency virus 1, 3B, MT4, 96 h
[3] = system: Escherichia coli; experiment: Antibacterial activity against Escherichia coli DSM 1103; assay type: functional
[4] = system: Staphylococcus aureus; experiment: Antibacterial activity against Staphylococcus aureus DSM 2569; assay type: functional
[5] = system: Enterococcus faecalis; experiment: Antibacterial activity against Enterococcus faecalis DSM 2570; assay type: functional
[6] = system: PC-3; experiment: Cytotoxicity against human PC3 cells assessed as growth inhibition at 10 uM after 3 days by XTT assay relative to control; assay type: functional; conditions: PC-3, 72 h, read-out: GI
[7] = system: PC-3; experiment: Cytotoxicity against human PC3 cells assessed as growth inhibition at 10 nM after 3 days by XTT assay relative to control; assay type: functional; conditions: PC-3, 72 h, read-out: GI
[8] = system: HT-29; experiment: Cytotoxicity against human HT-29 cells assessed as growth inhibition at 10 nM after 3 days by XTT assay; assay type: functional, cell-based
[9] = system: Caenorhabditis elegans; experiment: Antihelmintic activity against Caenorhabditis elegans Bristol N2 assessed as mortality at 100 ug/ml after 30 mins by microscopic analysis (reference value: 3 +/- 3%); assay type: functional
[10] = system: Caenorhabditis elegans; experiment: Antihelmintic activity against Caenorhabditis elegans Bristol N2 assessed as mortality at 12.5 ug/ml after 30 mins by microscopic analysis; assay type: functional, organism-based
[11] = system: HT-29; experiment: Cytotoxicity against human HT-29 cells assessed as growth inhibition at 125 uM after 3 days by XTT assay relative to control; assay type: functional; conditions: HT-29, 72 h, read-out: GI
[12] = system: PC-3; experiment: Cytotoxicity against human PC3 cells assessed as growth inhibition at 125 uM after 3 days by XTT assay relative to control; assay type: functional; conditions: PC-3, 72 h, read-out: GI
[13] = system: Caenorhabditis elegans; experiment: Antihelmintic activity against Caenorhabditis elegans Bristol N2 assessed as mortality at 10 ug/ml after 30 mins by microscopic analysis (reference value: 3 +/- 3%); assay type: functional, organism-based

Compound	CC50 at 96 h [1]	EC50 [2]	MIC [3]	MIC [4]	MIC [5]	inhibition of growth at 10 µM [6]	inhibition of growth at 0.01 µM [7]	growth inhibition (GI) [8]	Activity [9]	Activity [10]	inhibition of growth at 125 µM [11]	inhibition of growth at 125 µM [12]	Activity [13]
CCC(C)C(=O)c1c(O)cc(O)c(C/C=C(\C)CCC=C(C)C)c1O (configuration not stated)	26.7 µM	> 26.7 µM	> 1 µg/mL	> 1 µg/mL	> 1 µg/mL	20%	< 20%	inactive	37%	inactive			
CCC(C)C(=O)c1c(O)cc(O)c2c1O[C@](C)(CCC=C(C)C)[C@@H](O)C2 (some centres not stated) [EMPETRIKARINOL B]	45 µM	> 45 µM	> 1 µg/mL	> 1 µg/mL	> 1 µg/mL	< 20%	< 20%	inactive	0.7%	inactive			
CC(C)C(=O)c1c(O)cc2c3c1OC(C)(C)C1CCC(C)(CC31)O2 (configuration not stated)	18.7 µM												
C[C@@H]1CC[C@@]2(OC1)O[C@H]1[C@@H](O)[C@H]3[C@@H]4CC[C@H]5C[C@@H](O[C@@H]6O[C@H](CO)[C@H](O[C@@H]7O[C@H](CO)C(O)[C@H](O[C@@H]8OC[C@@H](O)[C@H](O)[C@H]8O)[C@H]7O[C@@H]7O[C@H](CO)[C@H](O)[C@H](O[C@@H]8O[C@H](CO)[C@@H](O)[C@H](O)[C@H]8O)[C@H]7O)[C@H](O)[C@H]6O)[C@H](O)C[C@]5(C)[C@H]4CC[C@]3(C)[C@H]1[C@@H]2C (some centres not stated) [DIGITONIN]											100%	100%	
c1ccc2[nH]c(-c3cscn3)nc2c1 [THIABENDAZOLE]									19%				
CC(C)C(=O)c1c(O)cc(O)c2c1O[C@]1(C)CC[C@@H](O)C(C)(C)[C@H]1C2 (relative stereo)	41 µM	> 41 µM	> 1 µg/mL	> 1 µg/mL	> 1 µg/mL	< 20%	< 20%	inactive	0.7%	inactive			
CC(C)=CCCC1(C)Oc2c(c(O)cc(O)c2C(=O)C(C)C)CC1O (configuration not stated)	84 µM	> 84 µM	> 1 µg/mL	> 1 µg/mL	> 1 µg/mL	< 20%	< 20%	inactive					
CC(C)=CCC/C(C)=C/Cc1c(O)cc(O)c(C(=O)C(C)C)c1O	> 100 µM	> 100 µM	> 1 µg/mL	> 1 µg/mL	> 1 µg/mL	< 20%	< 20%	inactive	0.7%	inactive			
CCC(C)C(=O)c1c(O)cc2c3c1OC1(C)CCC(C3C1)C(C)(C)O2 (configuration not stated)	> 100 µM	> 100 µM	> 1 µg/mL	> 1 µg/mL	> 1 µg/mL	< 20%	< 20%	inactive					
IVERMECTIN													99%
CCC(C)C(=O)c1c(O)cc2c3c1OC(C)(C)C1CCC(C)(CC31)O2 (configuration not stated) [EMPETRIFRANZINAN C]	45 µM	> 45 µM	> 1 µg/mL	> 1 µg/mL	> 1 µg/mL	20%	< 20%	inactive					
CC(C)C(=O)c1c(O)cc2c3c1OC1(C)CCC(C3C1)C(C)(C)O2 (configuration not stated)	> 100 µM	> 100 µM	> 1 µg/mL	> 1 µg/mL	> 1 µg/mL	20%	< 20%	inactive					
CC(C)=CCC/C(C)=C/Cc1c(O)cc(O)c(C(=O)c2ccccc2)c1O	69 µM	> 69 µM	> 1 µg/mL	> 1 µg/mL	> 1 µg/mL	< 20%	< 20%	inactive	0.7%	inactive			
